Values joined by “and” are separate entries in the source; they are usually repeats but may differ in a detail not shown here. Equal values may be shown once. Inconclusive results and toxic doses are left out.

The subject of this assay is CD2F1 mice, L1210 leukemia ip, survival T/C. Briefly: NCI In Vivo Anticancer Drug Screen. Data for tumor model L1210 Leukemia (intraperitoneal) in CD2F1 (CDF1) mice. The following applies: higher = longer survival. The essentials: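 Each value reflects a quotient of treated over vehicle control outcomes in mice with a transplanted tumor.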
[1] abbreviates: endpoint: mean survival time, dose: 100.0 mg/kg/injection, schedule: Q01DX001 (ip), vehicle: saline.
Where [2] appears, read: endpoint: mean survival time, dose: 200.0 mg/kg/injection, schedule: Q01DX001 (ip), vehicle: saline.
The mark [3] stands for this setting: endpoint: mean survival time, dose: 400.0 mg/kg/injection, schedule: Q01DX001 (ip), vehicle: saline.
[4] abbreviates: endpoint: mean survival time, dose: 100.0 mg/kg/injection, schedule: Q04DX002 (ip), vehicle: saline with Tween-80.
[5] abbreviates: endpoint: mean survival time, dose: 200.0 mg/kg/injection, schedule: Q04DX002 (ip), vehicle: saline with Tween-80.
Where [6] appears, read: endpoint: mean survival time, dose: 100.0 mg/kg/injection, schedule: Q01DX009 (ip), vehicle: saline with Tween-80.
Where [7] appears, read: endpoint: mean survival time, dose: 200.0 mg/kg/injection, schedule: Q01DX009 (ip), vehicle: saline with Tween-80.
[8] abbreviates: endpoint: mean survival time, dose: 400.0 mg/kg/injection, schedule: Q01DX009 (ip), vehicle: saline with Tween-80.

Take `C[C@H](N)C(=O)N[C@@H]1[C@H]2C(=C(O)C[C@@H](O)[C@@H]2O)C(=O)O[C@]1(C)C(Cl)Cl`: the T/C was 106 % of control (endpoint: median survival time, dose: 0.07 mg/kg/injection, schedule: Q03HX024 (ip), vehicle: saline); 106 % of control and 109 % of control (endpoint: median survival time, dose: 0.09 mg/kg/injection, schedule: Q01DX009 (ip), vehicle: saline); 120 % of control (endpoint: median survival time, dose: 0.14 mg/kg/injection, schedule: Q03HX024 (ip), vehicle: saline); 114 % of control and 118 % of control (endpoint: median survival time, dose: 0.18 mg/kg/injection, schedule: Q01DX009 (ip), vehicle: saline); 105 % of control and 110 % of control and 112 % of control (endpoint: median survival time, dose: 0.19 mg/kg/injection, schedule: Q01DX009 (ip), vehicle: Klucel (hydroxypropylcellulose) (HPC)); 103 % of control (endpoint: median survival time, dose: 0.21 mg/kg/injection, schedule: Q03HX008 (ip), vehicle: saline). The T/C is 124 % of control (endpoint: median survival time, dose: 0.28 mg/kg/injection, schedule: Q03HX024 (ip), vehicle: saline); 116 % of control (endpoint: median survival time, dose: 0.34 mg/kg/injection, schedule: Q01DX005 (ip), vehicle: saline); 98 % of control (endpoint: median survival time, dose: 0.34 mg/kg/injection, schedule: Q01DX005 (iv), vehicle: saline); 120 % of control (endpoint: median survival time, dose: 0.37 mg/kg/injection, schedule: Q01DX009 (ip), vehicle: Klucel (hydroxypropylcellulose) (HPC)); 124 % of control (endpoint: median survival time, dose: 0.37 mg/kg/injection, schedule: Q01DX009 (ip), vehicle: saline); 118 % of control (endpoint: median survival time, dose: 0.37 mg/kg/injection, schedule: Q01DX009 (ip), vehicle: water). Also, the T/C is 117 % of control and 123 % of control and 111 % of control (endpoint: median survival time, dose: 0.38 mg/kg/injection, schedule: Q01DX009 (ip), vehicle: Klucel (hydroxypropylcellulose) (HPC)); 116 % of control (endpoint: median survival time, dose: 0.42 mg/kg/injection, schedule: Q03HX008 (ip), vehicle: saline); 113 % of control (endpoint: median survival time, dose: 0.56 mg/kg/injection, schedule: Q04DX003 (ip), vehicle: saline); 109 % of control (endpoint: median survival time, dose: 0.68 mg/kg/injection, schedule: Q01DX005 (iv), vehicle: saline); 150 % of control and 152 % of control and 155 % of control (endpoint: median survival time, dose: 0.75 mg/kg/injection, schedule: Q01DX009 (ip), vehicle: saline); 116 % of control (endpoint: median survival time, dose: 1.13 mg/kg/injection, schedule: Q04DX003 (ip), vehicle: saline). Besides, the T/C (endpoint: median survival time, dose: 1.5 mg/kg/injection, schedule: Q01DX009 (ip), vehicle: saline) is 155 % of control and 176 % of control and 190 % of control; the T/C (endpoint: median survival time, dose: 1.5 mg/kg/injection, schedule: Q01DX009 (ip), vehicle: water) was 153 % of control; the T/C (endpoint: median survival time, dose: 1.69 mg/kg/injection, schedule: Q01DX001 (ip), vehicle: saline) is 112 % of control; the T/C (endpoint: median survival time, dose: 1.69 mg/kg/injection, schedule: Q01DX001 (iv), vehicle: saline) is 101 % of control; the T/C (endpoint: median survival time, dose: 2.25 mg/kg/injection, schedule: Q04DX003 (ip), vehicle: saline) was 124 % of control; the T/C (endpoint: median survival time, dose: 2.7 mg/kg/injection, schedule: Q01DX005 (ip), vehicle: saline) was 167 % of control. Moreover, the T/C is, setting by setting: (endpoint: median survival time, dose: 3.0 mg/kg/injection, schedule: Q01DX009 (oral), vehicle: saline) 100 % of control; (endpoint: median survival time, dose: 3.38 mg/kg/injection, schedule: Q01DX001 (ip), vehicle: saline) 116 % of control; (endpoint: median survival time, dose: 3.38 mg/kg/injection, schedule: Q01DX001 (iv), vehicle: saline) 113 % of control; (endpoint: median survival time, dose: 6.0 mg/kg/injection, schedule: Q01DX009 (ip), vehicle: water) 91 % of control; (endpoint: median survival time, dose: 6.0 mg/kg/injection, schedule: Q01DX009 (oral), vehicle: saline) 97 % of control; (endpoint: median survival time, dose: 12.0 mg/kg/injection, schedule: Q01DX009 (oral), vehicle: saline) 100 % of control. The T/C (endpoint: median survival time, dose: 24.0 mg/kg/injection, schedule: Q01DX009 (oral), vehicle: saline) is 112 % of control.

`O=P1(C(Cl)Cl)OCCCO1`: the T/C is, setting by setting: under setting [1], 103 % of control; under setting [2], 100 % of control; under setting [3], 100 % of control.

In the case of `COc1cc2ccc3c[n+](C)ccc3c2cc1OC`, the T/C was 102 % of control and 100 % of control (endpoint: mean survival time, dose: 25.0 mg/kg/injection, schedule: Q01DX009 (ip), vehicle: water); 107 % of control and 104 % of control (endpoint: mean survival time, dose: 50.0 mg/kg/injection, schedule: Q01DX009 (ip), vehicle: water); 94 % of control and 114 % of control (endpoint: mean survival time, dose: 100.0 mg/kg/injection, schedule: Q01DX009 (ip), vehicle: water).

For the compound `CC(C)CC(CC(C)C)=NNc1ccc([N+](=O)[O-])cc1[N+](=O)[O-]`, the T/C is 100 % of control under setting [1], 103 % of control under setting [2] and 100 % of control under setting [3].

In the case of `Cn1cc(NC(=O)c2cc(NC(=O)c3cc(NC=O)cn3C)cn2C)cc1C(=O)NCCC(=N)N`, the T/C reads like this: (endpoint: mean survival time, dose: 100.0 mg/kg/injection, schedule: Q04DX003 (ip), vehicle: alcohol) 108 % of control; (endpoint: mean survival time, dose: 200.0 mg/kg/injection, schedule: Q04DX003 (ip), vehicle: alcohol) 102 % of control; (endpoint: median survival time, dose: 12.5 mg/kg/injection, schedule: Q01DX009 (ip), vehicle: water) 104 % of control; (endpoint: median survival time, dose: 25.0 mg/kg/injection, schedule: Q01DX009 (ip), vehicle: water) 100 % of control; (endpoint: median survival time, dose: 50.0 mg/kg/injection, schedule: Q01DX009 (ip), vehicle: water) 103 % of control; (endpoint: median survival time, dose: 100.0 mg/kg/injection, schedule: Q01DX009 (ip), vehicle: water) 108 % of control.

For the compound `CCCCCCCCCCCCSC(=S)S`, the T/C is 87 % of control under setting [4]; 91 % of control under setting [5]; 91 % of control (endpoint: mean survival time, dose: 400.0 mg/kg/injection, schedule: Q04DX002 (ip), vehicle: saline with Tween-80).

With `NCCCC(N)C(=O)O` (centres undefined), the T/C is 111 % of control (endpoint: median survival time, dose: 3.13 mg/kg/injection, schedule: Q04DX002 (ip), vehicle: saline); 117 % of control (endpoint: median survival time, dose: 6.25 mg/kg/injection, schedule: Q04DX002 (ip), vehicle: saline); 108 % of control (endpoint: median survival time, dose: 12.5 mg/kg/injection, schedule: Q04DX002 (ip), vehicle: saline); 105 % of control (endpoint: median survival time, dose: 50.0 mg/kg/injection, schedule: Q04DX002 (ip), vehicle: saline).

`CC(C)CC(CCl)Cc1nc2ccccc2[nH]1` (centres undefined): the T/C by setting is: under setting [4], 94 % of control; under setting [5], 97 % of control.

For the compound `CCCCCCCCCC(=O)Nc1ccc(C(=O)OCC)cc1`, the T/C under setting [6] is 95 % of control, the T/C under setting [7] was 97 % of control and the T/C under setting [8] is 98 % of control.

Turning to `c1ccc2c(c1)Nc1ccncc1S2`, the T/C was 94 % of control (endpoint: mean survival time, dose: 100.0 mg/kg/injection, schedule: Q04DX003 (ip), vehicle: saline with Tween-80); 96 % of control (endpoint: mean survival time, dose: 200.0 mg/kg/injection, schedule: Q04DX003 (ip), vehicle: saline with Tween-80); 112 % of control (endpoint: mean survival time, dose: 400.0 mg/kg/injection, schedule: Q04DX003 (ip), vehicle: saline with Tween-80).

Take `c1cn[nH]c1`: the T/C is 103 % of control and 105 % of control (endpoint: median survival time, dose: 12.5 mg/kg/injection, schedule: Q01DX009 (ip), vehicle: saline + alcohol); 95 % of control (endpoint: median survival time, dose: 12.5 mg/kg/injection, schedule: Q01DX009 (ip), vehicle: saline); 101 % of control and 110 % of control (endpoint: median survival time, dose: 25.0 mg/kg/injection, schedule: Q01DX009 (ip), vehicle: saline + alcohol); 102 % of control (endpoint: median survival time, dose: 25.0 mg/kg/injection, schedule: Q01DX009 (ip), vehicle: saline); 121 % of control and 105 % of control (endpoint: median survival time, dose: 50.0 mg/kg/injection, schedule: Q01DX009 (ip), vehicle: saline + alcohol); 112 % of control (endpoint: median survival time, dose: 50.0 mg/kg/injection, schedule: Q01DX009 (ip), vehicle: saline). Also, the T/C by setting is: (endpoint: median survival time, dose: 100.0 mg/kg/injection, schedule: Q01DX009 (ip), vehicle: saline + alcohol) 117 % of control; (endpoint: median survival time, dose: 200.0 mg/kg/injection, schedule: Q01DX009 (ip), vehicle: saline + alcohol) 90 % of control and 102 % of control; (endpoint: median survival time, dose: 200.0 mg/kg/injection, schedule: Q01DX009 (ip), vehicle: saline) 90 % of control.

Take `NC(=O)C1C=CCC1` (centres undefined): the T/C runs as follows: (endpoint: mean survival time, dose: 25.0 mg/kg/injection, schedule: Q01DX009 (ip), vehicle: saline with Tween-80) 104 % of control; (endpoint: mean survival time, dose: 25.0 mg/kg/injection, schedule: Q04DX002 (ip), vehicle: saline with Tween-80) 95 % of control; (endpoint: mean survival time, dose: 50.0 mg/kg/injection, schedule: Q01DX009 (ip), vehicle: saline with Tween-80) 101 % of control; (endpoint: mean survival time, dose: 50.0 mg/kg/injection, schedule: Q04DX002 (ip), vehicle: saline with Tween-80) 100 % of control; under setting [6], 101 % of control; under setting [4], 91 % of control.

As for `O/N=C1/CCCC/C1=C/c1ccccc1`, the T/C is 103 % of control under setting [6], 97 % of control under setting [7] and 97 % of control under setting [8].

The values are drawn from PubChem BioAssay AID256 (DTP/NCI, 2004).
